Assay results: patent publication US7462600B2, “Macrolides” (Pfizer Inc, priority 2004, dated 2008)
Values after ≈ are worked out from the molar mass of the structure shown. Where two headings read alike, the source gives them in different places.

Assays:
Type in all cases: cell-based
[1] = test system: Streptococcus pyogenes 1079; test: MIC, microtiter broth dilution (NCCLS M100-S14), S. pyogenes 1079 (ermB)
How it was run: (§1)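 Compounds were first dissolved in DMSO (40 mg/ml stock), then tested by broth dilution in microtiter trays. MICs were interpreted using the 14th Informational Supplement (M100-S14) criteria.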

[2] = test system: Streptococcus pneumoniae 1016; test: MIC, microtiter broth dilution (NCCLS M100-S14), S. pneumoniae 1016 (susceptible)
How it was run: as §1

[3] = test system: Streptococcus pneumoniae 1095; details: microtiter broth dilution
How it was run: as §1

[4] = test system: Streptococcus pneumoniae 1175; details: microtiter broth dilution
How it was run: as §1

[5] = test system: Haemophilus influenzae 1218; test: MIC, microtiter broth dilution (NCCLS M100-S14), H. influenzae 1218 (susceptible)
How it was run: as §1

SMILES	MIC S. pyogenes 1079 ([1]; Streptococcus pyogenes 1079) [µg/mL]	MIC S. pneumo. 1016 ([2]; Streptococcus pneumoniae 1016) [µg/mL]	MIC S. pneumo. 1095 ([3]; Streptococcus pneumoniae 1095) [µg/mL]	MIC S. pneumo. 1175 ([4]; Streptococcus pneumoniae 1175) [µg/mL]	MIC H. influenzae 1218 ([5]; Haemophilus influenzae 1218) [µg/mL]	MIC S. pyogenes 1079 ([1]; S. pyogenes 1079 (ermB)) [µg/mL]	MIC S. pneumo. 1016 ([2]; S. pneumoniae 1016 (susceptible)) [µg/mL]	MIC S. pneumo. 1095 ([3]; S. pneumoniae 1095 (ermB)) [µg/mL]	MIC S. pneumo. 1175 ([4]; S. pneumoniae 1175 (mefA)) [µg/mL]	MIC H. influenzae 1218 ([5]; H. influenzae 1218 (susceptible)) [µg/mL]
CCC1OC(=O)C(C)C(=O)C(C)C(OC2OC(C)CC(N(C)C)C2O)C(C)(OC)CC(C)C(=O)C(C)C2N(CC3CN(Cc4n[nH]c5ncccc45)C3)C(=O)OC12C.O=CO (stereo not shown) [4.43]	>64.00	<0.06	0.12	1	0.25	–	–	–	–	–
CCC1OC(=O)C(C)C(=O)C(C)C(OC2OC(C)CC(N(C)C)C2O)C(C)(OC)CC(C)C(=O)C(C)C2N(CC3CN(C(=O)c4ccnc5nc[nH]c45)C3)C(=O)OC12C.O=CO (stereo not shown) [4.45]	>64.00	<0.06	>64.00	4	16	–	–	–	–	–
CCC1OC(=O)C(C)C(=O)C(C)C(OC2OC(C)CC(N(C)C)C2O)C(C)(OC)CC(C)C(=O)C(C)C2N(CC3CN(C(=O)c4cccc5ncoc45)C3)C(=O)OC12C.O=CO (stereo not shown) [4.46]	64	<0.06	0.5	<0.06	1	–	–	–	–	–
CCC1OC(=O)C(C)C(=O)C(C)C(OC2OC(C)CC(N(C)C)C2O)C(C)(OC)CC(C)C(=O)C(C)C2N(CC3CN(C(=O)c4cncc5ccccc45)C3)C(=O)OC12C.O=CO (stereo not shown) [4.47]	>64.00	<0.06	0.19	0.12	0.75	–	–	–	–	–
CC[C@H]1OC(=O)[C@H](C)C(=O)[C@H](C)[C@@H](O[C@@H]2O[C@H](C)C[C@H](N(C)C)[C@H]2O)[C@](C)(OC)C[C@@H](C)C(=O)[C@H](C)[C@H]2N(CC3(C)CN(Cc4ccc5ncccc5c4)C3)C(=O)O[C@]12C [6.01]	>64.00	<0.06	0.5 (≈ 0.597 µM)	0.5 (≈ 0.597 µM)	1 (≈ 1.19 µM)	–	–	–	–	–
CC[C@H]1OC(=O)[C@H](C)C(=O)[C@H](C)[C@@H](O[C@@H]2O[C@H](C)C[C@H](N(C)C)[C@H]2O)[C@](C)(OC)C[C@@H](C)C(=O)[C@H](C)[C@H]2N(CC3(C)CN(Cc4cccc5ncccc45)C3)C(=O)O[C@]12C [6.02]	32 (≈ 38.2 µM)	<0.06	<0.06	0.25 (≈ 0.299 µM)	2 (≈ 2.39 µM)	–	–	–	–	–
CC[C@H]1OC(=O)[C@H](C)C(=O)[C@H](C)[C@@H](O[C@@H]2O[C@H](C)C[C@H](N(C)C)[C@H]2O)[C@](C)(OC)C[C@@H](C)C(=O)[C@H](C)[C@H]2N(CC3(C)CN(Cc4c[nH]c5ncccc45)C3)C(=O)O[C@]12C [6.03]	16 (≈ 19.4 µM)	<0.06	<0.06	0.12 (≈ 0.145 µM)	0.5 (≈ 0.605 µM)	–	–	–	–	–
CC[C@H]1OC(=O)[C@H](C)C(=O)[C@H](C)[C@@H](O[C@@H]2O[C@H](C)C[C@H](N(C)C)[C@H]2O)[C@](C)(OC)C[C@@H](C)C(=O)[C@H](C)[C@H]2N(CC3(C)CN(Cc4ccc5nccnc5c4)C3)C(=O)O[C@]12C [6.04]	>64.00	<0.06	0.25 (≈ 0.298 µM)	0.25 (≈ 0.298 µM)	1 (≈ 1.19 µM)	–	–	–	–	–
CC[C@H]1OC(=O)[C@H](C)C(=O)[C@H](C)[C@@H](O[C@@H]2O[C@H](C)C[C@H](N(C)C)[C@H]2O)[C@](C)(OC)C[C@@H](C)C(=O)[C@H](C)[C@H]2N(CC3(C)CN(Cc4cccc5nccnc45)C3)C(=O)O[C@]12C [6.05]	>64.00	<0.06	<0.06	0.12 (≈ 0.143 µM)	1 (≈ 1.19 µM)	–	–	–	–	–
CC[C@H]1OC(=O)[C@H](C)C(=O)[C@H](C)[C@@H](O[C@@H]2O[C@H](C)C[C@H](N(C)C)[C@H]2O)[C@](C)(OC)C[C@@H](C)C(=O)[C@H](C)[C@H]2N(CC3(C)CN(Cc4ccc5cccnc5c4)C3)C(=O)O[C@]12C [6.06]	>64.00	<0.06	0.5 (≈ 0.597 µM)	0.5 (≈ 0.597 µM)	1 (≈ 1.19 µM)	–	–	–	–	–
CC[C@H]1OC(=O)[C@H](C)C(=O)[C@H](C)[C@@H](O[C@@H]2O[C@H](C)C[C@H](N(C)C)[C@H]2O)[C@](C)(OC)C[C@@H](C)C(=O)[C@H](C)[C@H]2N(CC3(C)CN(Cc4cnc5ccccc5n4)C3)C(=O)O[C@]12C [6.07]	>64.00	<0.06	1 (≈ 1.19 µM)	0.5 (≈ 0.597 µM)	4 (≈ 4.77 µM)	–	–	–	–	–
CC[C@H]1OC(=O)[C@H](C)C(=O)[C@H](C)[C@@H](O[C@@H]2O[C@H](C)C[C@H](N(C)C)[C@H]2O)[C@](C)(OC)C[C@@H](C)C(=O)[C@H](C)[C@H]2N(CC3(C)CN(Cc4c[nH]c5ccc(F)cc45)C3)C(=O)O[C@]12C [6.08]	16 (≈ 19 µM)	<0.06	<0.06	0.25 (≈ 0.297 µM)	0.5 (≈ 0.593 µM)	–	–	–	–	–
CC[C@H]1OC(=O)[C@H](C)C(=O)[C@H](C)[C@@H](O[C@@H]2O[C@H](C)C[C@H](N(C)C)[C@H]2O)[C@](C)(OC)C[C@@H](C)C(=O)[C@H](C)[C@H]2N(CC3(C)CN(Cc4c[nH]nc4-c4ccccc4)C3)C(=O)O[C@]12C [6.09]	>64.00	<0.06	<0.06	0.25 (≈ 0.293 µM)	0.5 (≈ 0.587 µM)	–	–	–	–	–
CC[C@H]1OC(=O)[C@H](C)C(=O)[C@H](C)[C@@H](O[C@@H]2O[C@H](C)C[C@H](N(C)C)[C@H]2O)[C@](C)(OC)C[C@@H](C)C(=O)[C@H](C)[C@H]2N(CC3(C)CN(Cc4ccc5[nH]ccc5c4)C3)C(=O)O[C@]12C [6.10]	–	–	–	–	–	>64.00	<0.06	0.25 (≈ 0.303 µM)	0.12 (≈ 0.145 µM)	1 (≈ 1.21 µM)
